Test results reported in ChEMBL document CHEMBL2396547, “Anticancer effects of a novel class rosin-derivatives with different mechanisms” (Bioorg Med Chem Lett, 2013).
The source made the active and inactive calls. The rule behind the calls is not given here.

What was measured:
PC-3 = test: Cytotoxicity against human PC3 cells assessed as growth inhibition after 72 hrs by MTT assay; assay type: functional, cell-based; settings: PC-3, 72 h
Jurkat = test: Cytotoxicity against human Jurkat cells assessed as growth inhibition after 72 hrs by MTT assay; assay type: functional, cell-based
5637 = test: Cytotoxicity against human 5637 cells assessed as growth inhibition after 72 hrs by MTT assay; assay type: functional, cell-based; settings: Homo sapiens, 5637, 72 h
EJ [1] = test: Cytotoxicity against human EJ cells assessed as growth inhibition after 72 hrs by MTT assay; assay type: functional, cell-based
HeLa = test: Cytotoxicity against human HeLa cells assessed as growth inhibition after 72 hrs by MTT assay; assay type: functional, cell-based
EJ [2] = test: Induction of apoptosis in human EJ cells assessed as late apoptotic cells at 5 uM after 24 hrs by annexin V-FITC/propidium iodide staining-based flow cytometric analysis (reference value: 0.08 to 0.22%); assay type: functional
EJ [3] = test: Induction of apoptosis in human EJ cells assessed as nuclear condensation at 5 uM after 24 hrs by Hoechst 33342 staining-based confocal microscopic analysis; assay type: functional, cell-based
EJ [4] = test: Induction of apoptosis in human EJ cells assessed as early apoptotic cells at 5 uM after 24 hrs by annexin V-FITC/propidium iodide staining-based flow cytometric analysis (reference value: 0.01 to 0.04%); assay type: functional
EJ [5] = test: Induction of apoptosis in human EJ cells assessed as decrease in procaspase-9 level at 5 uM after 24 hrs by Western blot analysis; assay type: functional, cell-based
EJ [6] = test: Induction of apoptosis in human EJ cells assessed as viable cells at 5 uM after 24 hrs by annexin V-FITC/propidium iodide staining-based flow cytometric analysis (reference value: 99.6%); assay type: functional; settings: read-out: Activity
EJ [7] = test: Induction of apoptosis in human EJ cells assessed as necrotic cells at 5 uM after 24 hrs by annexin V-FITC/propidium iodide staining-based flow cytometric analysis (reference value: 0.28 to 0.30%); assay type: functional
EJ [8] = test: Induction of apoptosis in human EJ cells assessed as increase in cytosolic cytochrome c level at 5 uM after 24 hrs by Western blot analysis; assay type: functional, cell-based
EJ [9] = test: Induction of apoptosis in human EJ cells assessed as formation of apoptotic bodies at 5 uM after 24 hrs by Hoechst 33342 staining-based confocal microscopic analysis; assay type: functional, cell-based
EJ [10] = test: Induction of necrosis in human EJ cells assessed as disruption of membrane integrity at 15 uM after 1 hr by propidium iodide uptake assay; assay type: functional, cell-based
EJ [11] = test: Induction of apoptosis in human EJ cells assessed as disruption of mitochondria with frequent fusion between great number of vaculoes at 5 uM after 24 hrs by transmission electron microscopic analysis; assay type: functional, cell-based
EJ [12] = test: Induction of apoptosis in human EJ cells assessed as decrease in procaspase-3 level at 5 uM after 24 hrs by Western blot analysis; assay type: functional, cell-based
EJ [13] = test: Cytotoxicity against human EJ cells assessed as cell death at 5 to 20 uM after 24 hrs by MTT assay; assay type: functional, cell-based
EJ [14] = test: Cytotoxicity against human EJ cells assessed as cell death up to 20 uM measured within 1 hr by MTT assay; assay type: functional, cell-based
EJ [15] = test: Induction of apoptosis in human EJ cells assessed as cristae swelling at 5 uM after 24 hrs by transmission electron microscopic analysis; assay type: functional, cell-based
EJ [16] = test: Induction of necrosis in human EJ cells assessed as disruption of membrane integrity measuring loss of microvilli at 15 uM after 1 hr by scanning electron microscopic analysis; assay type: functional, cell-based
EJ [17] = test: Induction of necrosis in human EJ cells assessed as disruption of membrane integrity measuring pore formation at 15 uM after 1 hr by scanning electron microscopic analysis; assay type: functional, cell-based
[18] = Hemolytic activity in mouse RBC at 100 uM after 1 hr by ELISA relative to control; assay type: ADME, cell-based, Erythrocyte; settings: for Activity: erythrocyte, 1 h, 100 µM; for hemolysis at 1 h, 100 µM: mouse red blood cells, read-out: Activity
EJ [19] = test: Induction of apoptosis in human EJ cells assessed as mitochondrial matrix condensation at 5 uM after 24 hrs by transmission electron microscopic analysis; assay type: functional, cell-based
EJ [20] = test: Induction of apoptosis in human EJ cells assessed as caspase-8 activation at 5 uM after 24 hrs by Western blot analysis; assay type: functional, cell-based
EJ [21] = test: Induction of apoptosis in human EJ cells assessed as peripheral nuclear chromatin condensation at 5 uM after 24 hrs by transmission electron microscopic analysis; assay type: functional, cell-based
EJ [22] = test: Induction of apoptosis in human EJ cells assessed as nuclear fragmentation at 5 uM after 24 hrs by transmission electron microscopic analysis; assay type: functional, cell-based
EJ [23] = test: Cytotoxicity against human EJ cells assessed as cell death at 10 to 20 uM after 1 hr by MTT assay; assay type: functional, cell-based

Compound | IC50 (PC-3) | IC50 (Jurkat) | IC50 5637 | IC50 (EJ [1]) | IC50 (HeLa) | Activity (EJ [2]) | Activity (EJ [3]) | Activity (EJ [4]) | Activity (EJ [5]) | viability at 5 µM (EJ [6]) | Activity (EJ [7]) | Activity (EJ [8]) | Activity (EJ [9]) | Activity (EJ [10]) | Activity (EJ [12]) | Activity (EJ [20]) | further results
CC(C)c1ccc2c(c1)CC[C@H]1[C@](C)(C(=O)O)CCC[C@]21C [DEHYDROABIETIC ACID] | 28.1 µM | 25.5 µM | 27.6 µM | 25.1 µM | 28.4 µM |  |  |  |  |  |  |  |  |  |  |  | 
CC(C)c1ccc2c(c1)CC[C@H]1[C@](C)(CNC(=S)N[C@@H]3CCCC[C@H]3N3CCCC3)CCC[C@]21C | 4.7 µM | 3.39 µM | 3.59 µM | 3.44 µM | 4.47 µM | 4.73% | Active | 94.6% | Active | 0.64% | 0.01% | Active | Active | Active |  |  | 
C=CC1CN2CCC1CC2[C@H](NC(=S)NC[C@]1(C)CCC[C@]2(C)c3ccc(C(C)C)cc3CC[C@@H]12)c1ccnc2ccc(OC)cc12 (stereo partly drawn) | 2.98 µM | 2.2 µM | 2.64 µM | 2.07 µM | 3.21 µM | 4.01% | Active | 89% | Active | 6.83% | 0.12% | Active | Active | inactive | inactive | inactive | Activity (EJ [11]): Active; Activity (EJ [13]): Active; Activity (EJ [14]): inactive; Activity (EJ [15]): Active; Activity (EJ [16]): inactive; Activity (EJ [17]): inactive; Activity [18]: Non-toxic; Activity (EJ [19]): Active; Activity (EJ [21]): Active; Activity (EJ [22]): Active
C=C[C@H]1C[N@@]2CC[C@H]1C[C@H]2[C@H](O)c1ccnc2ccc(OC)cc12 [QUININE] |  |  |  |  |  |  |  |  |  |  |  |  |  |  |  |  | Activity [18]: Non-toxic
C=C[C@H]1CN2CC[C@H]1C[C@H]2[C@H](O)c1ccnc2ccc(OC)cc12 [QUININE] | > 50 µM | > 50 µM | > 50 µM | > 50 µM | > 50 µM |  |  |  |  |  |  |  |  |  |  |  | Activity (EJ [14]): inactive
CC(C)c1ccc2c(c1)CC[C@H]1[C@](C)(CN)CCC[C@]21C | 7.88 µM | 4.85 µM | 8.7 µM | 4.82 µM | 7.68 µM | 5.85% | Active | 87.9% | Active | 6.16% | 0.13% | Active | Active | Active | inactive | inactive | Activity (EJ [23]): Active; hemolysis at 1 h, 100 µM [18]: 17.9%
CC(C)c1ccc2c(c1)CC[C@H]1[C@](C)(CNC(=S)N[C@H]3CCCC[C@@H]3N3CCCC3)CCC[C@]21C | 6.57 µM | 4.5 µM | 5.18 µM | 4.29 µM | 5.76 µM | 4.53% | Active | 95.1% | Active | 0.35% | 0% | Active | Active | Active |  |  | 
CC(C)c1ccc2c(c1)CC[C@H]1[C@](C)(CNC(=S)N[C@H]3CCCC[C@@H]3N(C)C)CCC[C@]21C | 5.53 µM | 4.32 µM | 4.62 µM | 4.19 µM | 5.12 µM | 7.45% | Active | 92.2% | Active | 0.32% | 0% | Active | Active | Active |  |  | 
CC(C)c1ccc2c(c1)CC[C@H]1[C@](C)(CNC(=S)N[C@H]3CCCC[C@@H]3N)CCC[C@]21C | 3.52 µM | 3.48 µM | 3.14 µM | 3.05 µM | 3.73 µM | 9.06% | Active | 81.9% | Active | 8.8% | 0.25% | Active | Active | Active | inactive | inactive | Activity (EJ [11]): Active; Activity (EJ [23]): Active; Activity (EJ [15]): Active; Activity (EJ [16]): Active; Activity (EJ [17]): Active; hemolysis at 1 h, 100 µM [18]: 74.4%; Activity (EJ [19]): Active; Activity (EJ [21]): Active; Activity (EJ [22]): Active
